From patent US8445502B2, “Pharmaceutical formulations comprising salts of a protein kinase inhibitor and methods of using same” (Astex Pharmaceuticals, Inc., priority 2007, dated 2013)
Where two headings read alike, the source gives them in different places.

Tests used:
A549 lung cancer cells = type: in vivo; details: Day 26, 10 mg/kg IP in sterile saline, qd×5×3 wk (vehicle 43)
Method: (§1) MP470 and MP470 HCl were tested against different tumor types in athymic nude mice as summarized below (Table 8). Various formulations and routes were evaluated. HT-29 colorectal cancer cells and SB-CL2 melanoma cells were implanted subcutaneously, while A549 lung cancer cells, MiaPaCa-2 pancreatic cancer cells, TT medullary thyroid cancer cells, and OVCAR-3 ovarian cancer cells were implanted […] in the hind flank of mice. All animals were allowed to develop medium-sized (80-125 mg) tumors, before initiation of dosing. Tumor volume and mouse bodyweight were followed over the course of the study.
A549 Lung Cancer Model—In 40 nude mice implanted intradermally with A549 lung cancer cells, animals were dosed with vehicle orally, MP470 in 100% corn oil orally, or 5-FU in sterile saline IP. […] […] While MP470 reduced tumor growth rates, treatment of these cells with 5-FU reduced the overall tumor growth rate per day further to 19.5 mm3/d on Day 26.
To determine whether MP470.HCl in combination with carboplatin increased the anti-tumor activity in xenograft tumors growing in vivo, the agents were administered alone and in combination and tumor growth was monitored. MP470.HCl (50 mg/kg) was combined with carboplatin (30 mg/kg) alone or carboplatin with taxol (20 mg/kg).

A549 NSCLC cells = test: Sensitization of NSCLC cells to carboplatin; type: cell-based; details: A549, single agent
Method: (§2) The non-small cell lung cancer cell lines A549 and NCI-H647 were used for these experiments. […] The IC50 concentrations observed for carboplatin against both of these cell lines was consistent with this.
(§3) Two sub-IC50 doses of MP470.HCl were tested in combination with carboplatin to evaluate possible synergism between these agents and consequently a lower IC50 value for carboplatin in each of the cell lines.
(§4) MP470.HCl was able to dramatically decrease the IC50 of carboplatin in these cells.

NCI-H647 NSCLC cells = test: Sensitization of NSCLC cells to carboplatin; type: cell-based; details: NCI-H647, single agent
Method: as §2, §3, §4

[1] = tested on: Rad51 in A549 non-small cell lung cancer cells; test: Rad51 protein level by Western blot in cells; type: cell-based; details: 6.1 μM carboplatin, 24 hrs
Method: Rad51 protein levels were also determined in A549 non-small cell lung cancer cells using combinations with DNA damaging agents. Cells were treated for 24 hrs with 6.1 μM (IC30 of carboplatin alone) carboplatin in combination with 0.71 μM or 3.82 μM MP470.HCl. Protein lysates were isolated from treated and non-treated cells, separated by SDS-PAGE, and transferred to nitrocellulose. […] The increase in Rad51 due to carboplatin treatment was reduced by 26% when treated in combination with 0.71 μM MP470.HCl and by 42% with 3.82 μM MP470.HCl

DMS-114 SCLC cells = test: Sensitization of SCLC cells to etoposide; type: cell-based; details: Homo sapiens; DMS-114, single agent
Method: (§5) Therefore, to determine if MP470 would increase sensitivity to etoposide treatment, SCLC cells were treated with the agents individually and in combination. […] Two sub-IC50 doses of MP470.HCl were tested in combination with etoposide to evaluate possible synergism and a resulting lower IC50 value for etoposide in each of the cell lines.

DMS-153 SCLC cells = test: Sensitization of SCLC cells to etoposide; type: cell-based; details: Homo sapiens; DMS-153, single agent
Method: as §5

[2] = Solubility of MP470 and its salts (Table 2); type: physicochemical; details: water
[3] = tested on: OVCAR-3 ovarian cancer cells; test: OVCAR-3 ovarian cancer tumor model in nude mice; type: in vivo
Method: as §1
OVCAR-3 Ovarian Cancer Model—Forty-two nude mice were implanted subcutaneously with OVCAR-3 ovarian carcinoma, the hydrochloride salt of MP470 (MP470.HCl) was formulated in 100% corn oil and delivered orally. MP470.HCl, cisplatin, and irinotecan were administered to animals alone or in combination. When administered alone, MP470.HCl was given qd at 100 or 200 mg/kg, irinotecan was given q3d at 20 mg/kg, and cisplatin was given q7d at 5 mg/kg. In combination studies, 100 mg/kg MP470.HCl was given qd and combined with 20 mg/kg irinotecan given q3d or 5 mg/kg cisplatin given q7d. One animal in the 200 mg/kg MP470.HCl group died on Day 1, while five animals in the MP470.HCl/cisplatin combination group died (one on Day 5, Day 6, Day 7, Day, 20, and Day 27). Treatment with each individual agent (200 mg/kg MP470.HCl, 46.2 mm3/d; 20 mg/kg irinotecan, 38.53 mm3/d; 5 mg/kg cisplatin, 33.8 mm3/d) reduced the tumor growth rate below that of vehicle-treated mice (78.04 mm3/d). […] In contrast, when MP470.HCl and cisplatin were used in combination, the tumor growth rate was reduced to 10.22 mm3/d. However, the 100 mg/kg dose of MP470.HCl in combination with cisplatin caused enhanced toxicity and most animals in this group died during the 21-day treatment period. The enhanced toxicity was related to the level of the dose used, so a subsequent study was conducted using half the dose, 50 mg/kg/day as described below.

[4] = rat, in vivo, po
Method: Twenty-four rats were placed into four groups each consisting of three animals per sex. The animals were weighed the day before dosing, as well as just prior to dosing.
After intravenous infusion of MP470.HCl at 5 mg/kg, average MP470 peak plasma concentrations of 454.3 ng/mL for males and 370.7 ng/mL for females were attained at 0.083 hours (5 minutes), the first sampling point postdose. After oral administration of non-micronized MP470.HCl, peak plasma concentrations of MP470 were attained at 0.5-12 hours for Group 2 (25 mg/kg) and 4-12 hours for Group 3 (100 mg/kg, suspension). The extent of systemic exposure of rats to MP470, characterized by AUCO-∞, was approximately 3.8-fold and 2.9-fold higher in females than in males for Groups 2 and 3, respectively. Average AUCO-∞ values were higher at 100 mg/kg than at 25 mg/kg and the increases in AUCO-∞ were greater than dose-proportional.
After oral administration of micronized MP470.HCl (Group 4), peak plasma concentrations of MP470 were attained at 4-12 hours. The extent of systemic exposure of rats to MP470, characterized by AUCO-∞, was approximately 3.4-fold higher in females than in males for Group 4. The extent of exposure of rats to MP470, characterized by AUCO-∞, was 1.7-fold (males) and 1.4-fold (females) higher for non-micronized MP470 HCl (Group 3) than for micronized MP470 HCl (Group 4).

[5] = tested on: γ-H2AX levels in OVCAR-3 (ovarian carcinoma) cells; test: DNA damage by γ-H2AX levels; type: cell-based; details: single agent 10 μM; control 0.5% DMSO medium
Method: OVCAR-3 (ovarian carcinoma) cells were treated with MP470 (10 μM), MP470.HCl (10 μM), and/or topotecan (10 μM).

For `O=c1[nH]cc(F)c(=O)[nH]1` [5-FU, 5-fluorouracil, reference compound], which tumor growth rate (A549 lung cancer cells) is on record?
The tumor growth rate was 19.5 mm3/d.

What does the source list for `N.N.O=C([O-])C1(C(=O)[O-])CCC1.[Pt+2]` [Carboplatin, reference compound]?
IC50 (A549 NSCLC cells): 20.1 µM; IC50 (NCI-H647 NSCLC cells): 173 µM; increase of Rad51 levels over non-treatment levels [1]: 12 fold

Which IC50 (DMS-114 SCLC cells) does the source give for `COc1cc([C@@H]2c3cc4c(cc3[C@@H](O[C@@H]3O[C@@H]5CO[C@@H](C)O[C@H]5[C@H](O)[C@H]3O)[C@H]3COC(=O)[C@H]23)OCO4)cc(OC)c1O` [Etoposide, reference compound] here?
The IC50 was 0.92 µM.

And the IC50 (DMS-153 SCLC cells)?
Its IC50 is 0.29 µM.

Which Solubility in water [2] does the source give for `S=C(NCc1ccc2c(c1)OCO2)N1CCN(c2ncnc3c2oc2ccccc23)CC1` [MP470 Esylate] here?
The Solubility in water was 5.89 µg/mL.

For `N.N.[Cl][Pt][Cl]` [cisplatin, reference compound], which tumor growth rate ([3]; 5 mg/kg q7d (vehicle 78.04)) is on record?
The tumor growth rate was 33.8 mm3/d.

Which tumor growth rate ([3]; 20 mg/kg q3d (vehicle 78.04)) does the source give for `CCc1c2c(nc3ccc(OC(=O)N4CCC(N5CCCCC5)CC4)cc13)-c1cc3c(c(=O)n1C2)COC(=O)[C@]3(O)CC` [irinotecan, reference compound] here?
Its tumor growth rate is 38.53 mm3/d.

Which results are given for `Cl.S=C(NCc1ccc2c(c1)OCO2)N1CCN(c2ncnc3c2oc2ccccc23)CC1` [micronized MP470.HCl]?
AUC0-∞ in females relative to males ([4]; 100 mg/kg): approximately 3.4 fold; time of peak plasma concentration ([4]; 100 mg/kg): 4 to 12 h

What does the source list for `Cl.S=C(NCc1ccc2c(c1)OCO2)N1CCN(c2ncnc3c2oc2ccccc23)CC1` [non-micronized MP470.HCl]?
AUC0-∞ in females relative to males ([4]; 25 mg/kg): approximately 3.8 fold; time of peak plasma concentration ([4]; 25 mg/kg): 0.5 to 12 h; AUC0-∞ in females relative to males ([4]; 100 mg/kg): ~2.9 fold; time of peak plasma concentration ([4]; 100 mg/kg): 4 to 12 h

With `CC[C@@]1(O)C(=O)OCc2c1cc1n(c2=O)Cc2cc3c(CN(C)C)c(O)ccc3nc2-1` [topotecan, reference compound] as the molecule, how does the “Increase in DNA damage (γ-H2AX) over control” value [5] read?
Its value is 65%.
